The target in this assay is T1, P2X7 receptor (Homo sapiens, UniProt Q99572).
T1 construct: host or cells: THP-1 cells differentiated with LPS and IFN-γ
T1 sequence (Q99572 1-595): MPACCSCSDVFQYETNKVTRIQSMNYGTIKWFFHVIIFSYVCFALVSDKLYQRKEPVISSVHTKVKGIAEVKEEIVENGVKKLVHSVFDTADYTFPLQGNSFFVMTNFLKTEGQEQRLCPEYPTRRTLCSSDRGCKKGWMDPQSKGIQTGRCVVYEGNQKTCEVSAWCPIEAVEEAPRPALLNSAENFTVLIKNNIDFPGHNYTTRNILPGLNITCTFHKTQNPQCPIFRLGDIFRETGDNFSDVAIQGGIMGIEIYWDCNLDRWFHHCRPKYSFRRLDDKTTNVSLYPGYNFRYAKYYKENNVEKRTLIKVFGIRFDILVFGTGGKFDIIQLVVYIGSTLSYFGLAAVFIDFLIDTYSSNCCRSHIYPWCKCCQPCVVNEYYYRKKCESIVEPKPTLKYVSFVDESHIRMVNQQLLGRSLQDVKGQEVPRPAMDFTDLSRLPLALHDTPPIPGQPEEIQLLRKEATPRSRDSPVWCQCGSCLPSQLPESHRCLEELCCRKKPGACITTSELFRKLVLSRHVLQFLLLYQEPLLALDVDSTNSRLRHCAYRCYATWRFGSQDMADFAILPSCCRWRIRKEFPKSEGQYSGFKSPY
In words: IL-1β release assay in differentiated THP-1 cells stimulated with BzATP (Example 9). The class given is cell-based. To be noted: for inhibition at 0.3 µM: 0.3 μM compound, symbols + to ++++, read-out: IL-1β % Inhib. @ 0.3 μM; for inhibition at 0.3 µM / inhibition at 0.1 µM: differentiated THP-1 cells, BzATP 250 uM; for IC50: THP-1 cells, BzATP-stimulated IL-1β release, four parameter logistic fit; for inhibition at 0.1 µM: 0.1 μM compound, symbols * to ****, read-out: IL-1β % Inhib. (asterisk symbols: at 0.1 μM); for inhibition: THP-1, read-out: IL-1β % Inhib. More on the design: inhibition: dose or concentration left out as unconfirmed. Summed up: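 IC50 derived by four-parameter logistic fit of percent inhibition of IL-1β release, measured by ELISA after 45 min stimulation with 250 uM BzATP. Cells: THP-1 differentiated 16 h with 100 ng/mL LPS plus IFN-γ, LPS-primed 2 h, compound added 30 min beforehand.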

In the case of `CC(=O)OCCn1ccc2c(NC(=O)Cc3cc(C(F)(F)F)cc(C(F)(F)F)c3)cccc2c1=O` [Compound 1378], the inhibition at 0.3 µM was 51 to 75% and inhibition was half-maximal at 121 nM (IC50). In the same order, the values of `CC(=O)OCCn1ccc2c(NC(=O)CC3CCCCC3)cccc2c1=O` [Compound 1379] are at least 76% and 41.5 nM. Regarding `CC(=O)OCCn1ccc2c(NC(=O)Cc3ccc(Cl)c(C(F)(F)F)c3)cccc2c1=O` [Compound 1380, Acetic acid 2-{5-[2-(4-chloro-3-trifluoromethyl-phenyl)-acetylamino]-1-oxo-1H-isoquinolin-2-yl}-ethyl ester], the inhibition at 0.3 µM was at least 76% and the 50% inhibitory concentration (IC50) amounted to 5.33 nM. Take `CC(=O)OCCn1ccc2c(NC(=O)Cc3ccc(Cl)cc3Cl)cccc2c1=O` [Compound 1381]: the inhibition at 0.3 µM was at least 76% and inhibition was half-maximal at 34.1 nM (IC50).

As to `CC(=O)OCCn1ccc2c(NC(=O)Cc3cc(C(F)(F)F)ccc3C(F)(F)F)cccc2c1=O` [Compound 1382], the inhibition at 0.3 µM lay within 26 to 50% and the IC50 amounted to 602 nM. The like results for `CC(=O)OCCn1ccc2c(NC(=O)CCc3ccc(S(C)(=O)=O)cc3)cccc2c1=O` [Compound 1383] were, in that order, 0 to 25% and over 1000 nM. In the same order, the values of `CC(=O)OCCn1ccc2c(NC(=O)Cc3ccc(S(C)(=O)=O)cc3)cccc2c1=O` [Compound 1384] are 0 to 25% and over 1000 nM.

Take `CN(C)CCn1ccc2c(NC(=O)Cc3ccc(Cl)c(C(F)(F)F)c3)cccc2c1=O` [Compound 1385]: the inhibition at 0.3 µM was at least 76% and half-maximal inhibition (IC50) required 152 nM. In the case of `CN(C)CCn1ccc2c(NC(=O)Cc3ccc(Cl)c(Cl)c3)cccc2c1=O` [Compound 1386], the inhibition at 0.3 µM is 51 to 75% and half-maximal inhibition (IC50) was put at 238 nM.

For `CN(C)CCn1ccc2c(NC(=O)Cc3ccc(Cl)cc3Cl)cccc2c1=O` [Compound 1387], the inhibition at 0.3 µM was 51 to 75% and the IC50 was found to be 146 nM. With `CN(C)CCn1ccc2c(NC(=O)CC3(O)CCCCCC3)cccc2c1=O` [Compound 1388], the inhibition at 0.3 µM was 0 to 25% and the IC50 is over 1000 nM. `CN(C)CCn1ccc2c(NC(=O)CC3CCCCCC3)cccc2c1=O` [Compound 1389]: the inhibition at 0.3 µM was 26 to 50% and the IC50 amounted to 311 nM. The like results for `CN(C)CCn1ccc2c(NC(=O)CC3(O)CC(C)(C)CC(C)(C)C3)cccc2c1=O` [Compound 1390] were, in that order, at least 76% and 79.3 nM.

Regarding `CC(C(=O)Nc1cccc2c(=O)n(CCN(C)C)ccc12)c1ccc(Cl)cc1` (stereo not drawn) [Compound 1391], the inhibition at 0.3 µM was at least 76% and inhibition was half-maximal at 45.7 nM (IC50). The like results for `COCCn1ccc2c(NC(=O)Cc3ccc(Cl)c(Cl)c3)cccc2c1=O` [Compound 1392] were, in that order, 51 to 75% and 123 nM.

Take `COCCn1ccc2c(NC(=O)CC3(O)CC(C)(C)CC(C)(C)C3)cccc2c1=O` [Compound 1393]: the inhibition at 0.3 µM was at least 76% and half-maximal inhibition (IC50) required 77.8 nM. As to `COc1ccc(C(=O)Nc2cccc3c(=O)n(CC4CCOCC4)ccc23)c(C)c1` [Compound 1394], the inhibition at 0.1 µM lay in the range of 0 to 25%. Same read-out and setting: the same measure for `C[C@H]1CC[C@H](C(=O)Nc2cccc3c(=O)n(CC4CCOCC4)ccc23)CC1` [Compound 1395]: 0 to 25%. The same measure, in the same setting: the same measure for `Cc1ccccc1CCC(=O)Nc1cccc2c(=O)n(CC3CCOCC3)ccc12` [Compound 1396]: 0 to 25%; for `CCOc1ccc(C(=O)Nc2cccc3c(=O)n(CCN(C)C)ccc23)c(O)c1` [Compound 1397]: 0 to 25%. Turning to `COc1ccc(C(=O)Nc2cccc3c(=O)n(CCN(C)C)ccc23)c(C)c1` [Compound 1398], the inhibition was in the range of 0 to 25%. On the same count and under the same terms, the same measure for `Cc1ccccc1CCC(=O)Nc1cccc2c(=O)n(CCN(C)C)ccc12` [Compound 1399]: 0 to 25%; for `COc1cccc(CCC(=O)Nc2cccc3c(=O)n(CCN(C)C)ccc23)c1` [Compound 1400]: 26 to 50%; for `Cc1ccc(C)c(CC(=O)Nc2cccc3c(=O)n(CCN(C)C)ccc23)c1` [Compound 1401]: 0 to 25%. On the same count and under the same terms, the same measure for `COc1ccc(C(=O)Nc2cccc3c(=O)n(CCN(C)C)ccc23)cc1Cl` [Compound 1402]: 0 to 25%; for `CCOc1ccc(C(=O)Nc2cccc3c(=O)n(CCN4CCOCC4)ccc23)c(O)c1` [Compound 1403]: 0 to 25%; for `Cc1ccccc1CCC(=O)Nc1cccc2c(=O)n(CCN3CCOCC3)ccc12` [Compound 1404]: 0 to 25%.

With `COc1ccc(C(=O)Nc2cccc3c(=O)n(CC(C)(C)C)ccc23)c(C)c1` [Compound 1405], the inhibition was 0 to 25%.

`Cc1ccccc1CCC(=O)Nc1cccc2c(=O)n(Cc3cccnc3)ccc12` [Compound 1406]: the inhibition was 0 to 25%. Same read-out and setting: the same measure for `CCOc1cccc(C(=O)Nc2cccc3c(=O)n(Cc4cccnc4)ccc23)c1` [Compound 1407]: 0 to 25%. Regarding `O=C(Nc1cccc2c(=O)n(CC3CCOCC3)ccc12)c1ccc(-c2ccccc2)cc1` [Compound 1408], the inhibition lay in the range of 0 to 25%. Turning to `COc1ccccc1CC(=O)Nc1cccc2c(=O)n(CCN(C)C)ccc12` [Compound 1409], the inhibition lay within 0 to 25%. Same read-out and setting: the same measure for `O=C(Nc1cccc2c(=O)n(CCN3CCOCC3)ccc12)c1cccc2ccccc12` [Compound 1410]: 0 to 25%; for `O=C(Nc1cccc2c(=O)n(CCN3CCOCC3)ccc12)c1ccc2ccccc2c1` [Compound 1411]: 0 to 25%. The same measure, in the same setting: the same measure for `CC(C)(C)Cn1ccc2c(NC(=O)c3cc(Cl)ccc3Cl)cccc2c1=O` [Compound 1412]: 0 to 25%; for `Cc1ccccc1C(=O)Nc1cccc2c(=O)n(CC(C)(C)C)ccc12` [Compound 1413]: 0 to 25%; for `Cc1ccc(C)c(C(=O)Nc2cccc3c(=O)n(CC(C)(C)C)ccc23)c1` [Compound 1414]: 0 to 25%. `CCOc1ccc(C(=O)Nc2cccc3c(=O)n(CC(C)(C)C)ccc23)cc1` [Compound 1415]: the inhibition is 0 to 25%.

Turning to `CC(C)(C)Cn1ccc2c(NC(=O)c3ccc(C(C)(C)C)cc3)cccc2c1=O` [Compound 1416], the inhibition was 0 to 25%. On the same count and under the same terms, the same measure for `CC(C)(C)Cn1ccc2c(NC(=O)CCc3ccc(Cl)cc3)cccc2c1=O` [Compound 1417]: 26 to 50%. For `COc1ccc(C(=O)Nc2cccc3c(=O)n(CC(C)(C)C)ccc23)cc1C` [Compound 1418], the inhibition fell in the range of 0 to 25%. The same measure, in the same setting: the same measure for `Cc1ccccc1C(=O)Nc1cccc2c(=O)n(C)ccc12` [Compound 1419]: 0 to 25%. Consider `Cc1ccc(C)c(C(=O)Nc2cccc3c(=O)n(C)ccc23)c1` [Compound 1420], for which the inhibition was 0 to 25%.

In the case of `COc1ccc(OC)c(CC(=O)Nc2cccc3c(=O)n(C)ccc23)c1` [Compound 1422], the inhibition was 0 to 25%. On the same count and under the same terms, the same measure for `Cc1ccc(CC(=O)Nc2cccc3c(=O)n(C)ccc23)cc1` [Compound 1423]: 0 to 25%; for `COc1ccc(C(=O)Nc2cccc3c(=O)n(C)ccc23)cc1C` [Compound 1424]: 0 to 25%. Turning to `CC(C)Cc1ccc(C(=O)Nc2cccc3c(=O)n(C)ccc23)cc1` [Compound 1425], the inhibition is 0 to 25%. Take `COCCn1ccc2c(NC(=O)c3ccc(C)cc3C)cccc2c1=O` [Compound 1426]: the inhibition fell in the range of 0 to 25%.

For `COCCn1ccc2c(NC(=O)c3cc(C)ccc3C)cccc2c1=O` [Compound 1427], the inhibition lay in the range of 26 to 50%. Consider `COCCn1ccc2c(NC(=O)c3cccc(C)c3)cccc2c1=O` [Compound 1428], for which the inhibition fell in the range of 0 to 25%. For `CCOc1ccc(C(=O)Nc2cccc3c(=O)n(CCOC)ccc23)cc1` [Compound 1429], the inhibition was in the range of 0 to 25%. Consider `COCCn1ccc2c(NC(=O)c3ccc(C(C)(C)C)cc3)cccc2c1=O` [Compound 1430], for which the inhibition was 0 to 25%. Still for that read-out and setting: the same measure for `COCCn1ccc2c(NC(=O)C(C)c3ccccc3)cccc2c1=O` (stereo not drawn) [Compound 1431]: 0 to 25%. Still for that read-out and setting: the same measure for `COCCn1ccc2c(NC(=O)CCc3ccccc3OC)cccc2c1=O` [Compound 1432]: 0 to 25%.

Take `COCCn1ccc2c(NC(=O)Cc3cccc4ccccc34)cccc2c1=O` [Compound 1433]: the inhibition lay in the range of 0 to 25%.

Take `COCCn1ccc2c(NC(=O)c3ccc4ccccc4c3)cccc2c1=O` [Compound 1434]: the inhibition lay within 0 to 25%. On the same count and under the same terms, the same measure for `COCCn1ccc2c(NC(=O)Cc3ccccc3F)cccc2c1=O` [Compound 1435]: 0 to 25%; for `COCCn1ccc2c(NC(=O)Cc3ccccc3Cl)cccc2c1=O` [Compound 1436]: 0 to 25%. Same read-out and setting: the same measure for `COCCn1ccc2c(NC(=O)Cc3ccccc3OC)cccc2c1=O` [Compound 1437]: 0 to 25%.

The values above are taken from patent US8546579B2, “Bicycloheteroaryl compounds as P2X7 modulators and uses thereof” (Evotec (US) Inc., priority 2006, dated 2013).
